# Experimental data published in US9090662B2, “Dithioamine reducing agents” (WISCONSIN ALUMNI RESEARCH FOUNDATION, priority 2012, dated 2015).
# Where two headings read alike, the source gives them in different places. Marks after values point to notes of the source that are not given here.
# Assays:
# [1] = value from the literature, cited from earlier work
# [2] = value from the literature, cited from earlier work; remark: listed apart in the source
# [3] = from ref. 13; cited from earlier work
# [4] = Determination of thiol pKa values (pH-titration monitored by absorbance at 238 nm); format: physicochemical; conditions: for pKa: potassium phosphate buffer, mean ± SE from this work
# Experimental: The thiol pKa values of DTBA were determined by measuring its absorbance at 238 nm in solutions of different pH. The deprotonated thiolate absorbs much more strongly at 238 nm than does its protonated counterpart. [15a] This attribute was exploited for determining thiol pKa values as described previously. [15b] Buffered stock solutions of K3PO4, K2HPO4, and KH2PO4 (100 mM) were degassed and flushed with N2(g) for 1 h immediately prior to use. A stock solution of DTBA (1.5 mM) in KH2PO4 was then prepared. Various combinations of the buffered stock solutions were combined in duplicate to give two identical sets of 1-mL solutions of pH 5.5-11. KH2PO4 stock solution (70 μL) was added to each replicate pair of solutions and used to set the A238 to zero. Dithiol solution (70 μL) was then added to its complimentary 1-mL vial, and its absorbance at 238 nm was recorded. The pH of the solution was then immediately measured using a Beckman pH meter, which had been calibrated prior to use with pH 7 and pH 10 standard solutions from Fisher Scientific. This process was repeated multiple times to obtain a plot of A238 vs pH (FIG. 3).
# pKa values were determined by fitting the data in FIG. 3 to eq 1, which is derived from Beer's law and the definition of the acid dissociation constant. [15b] In eq 1, CT is total thiol concentration, εSH^SH is the extinction coefficient of the doubly protonated form, εSH^S− is the extinction coefficient of the singly protonated form, and εS−^S−is the extinction coefficient of the unprotonated form. Both pKa values and extinction coefficients were determined from the curve fit.
# [5] = Reduction potential (E°′) from HPLC redox equilibrium with oxidized DTT; format: physicochemical; conditions: for Keq for the reaction with oxidized DTT: 50 mM potassium phosphate buffer pH 7, 24 h, room temperature
# Experimental: [2g] Data were obtained by a procedure similar to that described previously. [2g, 15b] […] The flask was then flushed with N2(g) for 30 min.
# A 50 mM stock solution of potassium phosphate buffer (pH 7) was degassed and purged with N2(g) for 30 min immediately prior to use. Buffer (15 mL) was added, and the reaction mixture was stirred under N2(g) for 24 h at room temperature. The reaction mixture was then quenched by the addition of 3 N HCl (1:100 dilution). The reaction mixture was passed through a 4.5-μm filter, and 100 μL of the reaction mixture was analyzed immediately by HPLC using a Waters system equipped with a Waters 996 photodiode array detector, Empower 2 software, and a Varian C18 reverse-phase column. The column was eluted at 1.0 mL/min with water (5.0 mL), followed by a linear gradient (0-40% v/v) of acetonitrile/water over 40 min. Compounds were detected by their absorbance at 205 nm. Reduced and oxidized DTBA are highly polar and elute from the column immediately (as confirmed by LC-MS). Two peaks, however, were clearly visible in the chromatogram FIG. 4). […] Calibration curves were generated and found to be linear over the used concentration range.
# The procedure described in Example 5 was also performed with BMS. […] A previously reported reduction potential for BMS was E°′=−0.31 V. [2g]
# [6] = Kinetic studies on the reduction of oxidized βME; format: physicochemical
# Experimental: The observed second-order rate constant (kobs) for a thiol-disulfide interchange reaction was determined by adapting a procedure described previously. [2e] When the disulfide is oxidized βME, a 50 mM stock solution of potassium phosphate buffer was degassed and purged with N2(g) for 30 min immediately prior to use. […] Phosphate buffer (2.5 mL) was added to the round-bottom flask containing the dithiol. Oxidized βME stock solution (2.5 mL) was then added, and the reaction mixture was stirred at room temperature under N2(g) for 1 min. The reaction mixture was quenched by the addition of 0.10 mL of 3 N HCl. The reaction mixture was passed through a 4.5-μm filter, and 100 μL of the reaction mixture was analyzed immediately by HPLC using a Varian C18 reverse-phase column. The column was eluted at 1.0 mL/min with water (5.0 mL), followed by a linear gradient (0-40% v/v) of acetonitrile/water over 40 min. The extent of reduction was determined by integrating the newly formed peak corresponding to βME at 205 nm (retention time: 8 min). This process was repeated for reaction times of 2 and 4 min. Calibration curves were generated and found to be linear over the used concentration range. The amount of residual oxidized βME was calculated, and second-order rate constants were calculated from a linear fit of the data in FIG. 1A (that is, kobs=[(1/cfinal)−(1/cinitial)]/t). […] Rate constants were the mean±SE from three experiments.
# [7] = Kinetic studies on the reduction of oxidized L-glutathione; format: physicochemical; conditions: for kobs, second-order rate constant, reduction of oxidized L-glutathione: pH 7.0, 50 mM potassium phosphate buffer, mean ± SE from three experiments
# Experimental: An experiment similar to that in Example 7 was conducted with disulfide=oxidized L-glutathione. Reactions were quenched at various time points (2, 4, 6, and 8 min) and 100 μL was analyzed by HPLC (1.0 mL/min with water (5.0 mL) in 0.1% v/v TFA, followed by a linear gradient (0-40% v/v) of acetonitrile in 0.1% v/v TFA over 40 min). The extent of reduction was determined by integrating the newly formed L-glutathione reduced peak at 220 nm (retention time of 7 min). Second-order rate constants were calculated from a linear fit of the data in FIG. 1B (that is, kobs=[(1/cfinal)−(1/cinitial)]/t). Rate constants were the mean±SE from three experiments.
# [8] = molecular target: T1, papaya latex papain (Carica papaya, UniProt P00784); assay: Kinetic studies on the reactivation of papain (reduction of mixed disulfide at Cys25); format: biochemical; conditions: 0.10 M imidazole-HCl buffer, pH 7.0, 2 mM EDTA; for kobs, second-order rate constant, reactivation of papain: mean ± SE from three experiments
# T1 construct: Cys25 in the active site of papaya latex papain; from tissue; host or cells: papaya latex
# T1 sequence (P00784 134-345): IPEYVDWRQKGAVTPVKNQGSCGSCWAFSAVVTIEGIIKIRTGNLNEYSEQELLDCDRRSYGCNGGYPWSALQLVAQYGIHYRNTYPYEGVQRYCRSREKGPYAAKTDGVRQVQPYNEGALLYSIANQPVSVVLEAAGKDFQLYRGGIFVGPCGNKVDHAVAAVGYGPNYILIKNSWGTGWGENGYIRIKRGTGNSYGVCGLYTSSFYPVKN
# Experimental: Cys25 in the active site of papaya latex papain was oxidized as a mixed disulfide by a procedure described previously.[25] Briefly, a stock solution of methyl methanethiosulfonate (3.5 mM) was prepared by dilution of 5 μL of methyl methanethiosulfonate with 15 mL of 0.10 M potassium phosphate buffer, pH 7.0, containing EDTA (2 mM). KCl (0.011 g, 0.15 mmol) was added to 1.5 mL of this stock solution. The solution was deoxygenated by bubbling N2(g) through it for 15 min. Next, papain (5 mg, 150 units) was added, and the resulting solution was incubated at room temperature under N2(g) for 12 h. Excess methyl methanethiosulfonate was removed by size-exclusion chromatography using a Sephadex G-25 column. The final concentration of papain was determined by A280 using ε280=5.60×10^4 M^−1cm^−1. A solution (0.26 mL) of the chromatographed protein was diluted with 4.94 mL of deoxygenated aqueous buffer (0.10 M imidazole-HCl buffer, pH 7.0, containing 2 mM EDTA). Enzyme solution (1.25 mL) was then added to four separate vials. […] The rate of change in absorbance at 410 nm was recorded at 25° C. A unit of protein is defined by the amount of enzyme required to produce 1 μmol/min of 4-nitroaniline. Using an extinction coefficient for 4-nitroaniline of ε=8,800 M^−1cm^−1 at 410 nm, [27] the number of units of active papain in solution at each time point was calculated. […] Enzymatic activity (%) at particular times was calculated by dividing the number of active units of enzyme by the possible number of units in the solution, and was plotted as in FIG. 2A. To determine the value of the second-order rate constant kobs for the reducing agents, the second-order rate equation (eq 4) was transformed into eq 5, which was fitted to the data with the program PRISM 5.0. […] Values of kobs were the mean±SE from three experiments.
# [9] = molecular target: T2, rabbit muscle creatine kinase (Oryctolagus cuniculus, UniProt P00563); assay: Kinetic studies on the reactivation of creatine kinase (reduction of mixed disulfide at Cys283); format: biochemical; conditions: creatine kinase-Cys283-S—S-glutathione; mean ± SE from three experiments
# T2 construct: Cys283 in the active site of rabbit muscle creatine kinase; from tissue; host or cells: rabbit muscle
# Experimental: Cys283 in the active site of rabbit muscle creatine kinase was oxidized as a mixed disulfide by a procedure described previously, [28] but with a slight modification in the measurement of active enzyme. A unit of enzyme was defined as the amount required to produce 1 μmol/min of NADPH. Using an extinction coefficient for NADPH of ε=6.22 mM^−cm^−1 at 340 nm, the units of active creatine kinase in solution at a particular time were calculated. […] Enzymatic activity (%) at particular times was calculated by dividing the number of active units of enzyme by the possible number of units in the solution, and was plotted as in FIG. 2B. Values of the second-order rate constant k were determined by using eq 4 as described in Example 9, and were the mean±SE from three experiments.
# [10] = Separation using DOWEX 50WX4-400 ion-exchange resin (Ellman's assay of filtrate); format: physicochemical; conditions: 0.10 M sodium phosphate buffer, pH 8.0, 1 mM EDTA
# Experimental: A reaction buffer (0.10 M sodium phosphate, pH 8.0, 1 mM EDTA) was prepared. Ellman's reagent solution was prepared by adding Ellman's reagent (4 mg) to 1 mL of the reaction buffer. Next, to 25 mL of reaction buffer (0.10 M sodium phosphate, pH 8.0, 1 mM EDTA) was added DTBA (2.2 mg, 1.27×10^−5 mol) and 1.7 g of DOWEX 50WX4-400 ion-exchange resin. The mixture was swirled for several minutes and filtered through a fritted syringe. Ellman's reagent solution (50 μL) was added to two separate vials containing 2.5 mL of reaction buffer. As a blank, 250 μL of reaction buffer was added to one of the vials, and the absorbance at 412 nm was set to zero. Filtrate (250 μL) was then added to the other vial and its absorbance was recorded. With A412=0.012 and using an extinction coefficient of ε=14,150 M^−1cm^−1, [24b, 24c] it was calculated that >99% of DTBA was retained by the resin and thus removed from solution. […] See Example 3 for a more detailed explanation of similar calculations using Ellman's assay.
# [11] = Solubility in water; format: physicochemical; conditions: HCl salt
# [12] = pH 5.5, 50 mM potassium phosphate buffer
# [13] = pH 7.0, 50 mM potassium phosphate buffer, mean ± SE from three experiments
# T2 sequence (P00563 whole entry): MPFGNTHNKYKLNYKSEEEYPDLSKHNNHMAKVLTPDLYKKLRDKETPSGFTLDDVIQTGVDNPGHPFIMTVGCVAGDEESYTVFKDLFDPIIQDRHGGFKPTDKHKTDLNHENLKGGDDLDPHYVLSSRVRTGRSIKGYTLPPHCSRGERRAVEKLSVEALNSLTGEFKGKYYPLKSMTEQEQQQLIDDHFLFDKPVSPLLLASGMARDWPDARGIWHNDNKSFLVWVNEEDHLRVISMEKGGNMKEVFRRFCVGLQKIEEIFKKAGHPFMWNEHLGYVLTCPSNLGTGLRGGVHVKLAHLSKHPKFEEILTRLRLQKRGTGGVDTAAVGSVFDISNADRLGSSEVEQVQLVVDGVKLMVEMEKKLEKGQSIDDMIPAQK
SMILES,Thiol pKa ([1]; lower (first) thiol pKa),Disulfide Reduction Potential (E°′) [2],Keq for the reaction with oxidized DTT [5],"kobs, second-order rate constant, reduction of oxidized βME [6, 12] [M⁻¹ s⁻¹]","kobs, second-order rate constant, reduction of oxidized βME [6, 13] [M⁻¹ s⁻¹]","kobs, second-order rate constant, reduction of oxidized L-glutathione [7] [M⁻¹ s⁻¹]","kobs, second-order rate constant, reactivation of papain [8] [M⁻¹ s⁻¹]","kobs, second-order rate constant, reactivation of creatine kinase [9] [M⁻¹ s⁻¹]",Fraction removed from solution (retained) by Dowex 50 cation-exchange resin [10] [%],also measured
NCCS [Cysteamine],8.37^c,−0.203 V^b,,,,,,,,Amino pKa [3]: 10.44
"N[C@H](CS)CCS [DTBA, (2S)-2-amino-1,4-dimercaptobutane]",,,0.469±0.131,0.0093 ± 0.0003,0.29 ± 0.02,0.83 ± 0.04,1342 ± 148,15.1 ± 1.0,> 99,"pKa ([4]; lower (first) thiol pKa, 0.10 M potassium phosphate buffer): 8.2 ± 0.2; pKa ([4]; second (higher) thiol pKa, in parentheses in Table 1): 9.3 ± 0.1; kobs^DTBA/kobs^DTT, reduction of oxidized βME (fold faster than DTT) ([6]; pH 5.5): 4.4; kobs^DTBA/kobs^DTT, reduction of oxidized βME (fold faster than DTT) ([6]; pH 7.0): 3.5; kobs^DTBA/kobs^DTT, reduction of oxidized L-glutathione (fold faster than DTT) ([7]; pH 7.0): 5.2; kobs^DTBA/kobs^DTT, reduction of papain mixed disulfide (fold faster than DTT) [8]: 14; Solubility in water [11]: high solubility in water"
"OCCS [βME, β-mercaptoethanol]",9.61^a,−0.260 V^b,,,,,,,,
"O=S(=O)(CCS)CCS [BMS, Bis(2-mercaptoethyl)sulfone]",,−0.31 V,0.0517±0.0194,,,,,,,"Disulfide Reduction Potential (E°′) ([5]; 50 mM potassium phosphate buffer pH 7, equilibrium with oxidized DTT, assuming E°′=−0.327 V for DTT, mean ± SE from seven experiments): −0.291±0.002 V; Thiol pKa ([1]; second (higher) thiol pKa): 9.0±0.2"
"O[C@H](CS)[C@H](O)CS (racemic) [DTT, (2S,3S)-1,4-dimercaptobutane-2,3-diol]",,,,0.0021 ± 0.0002,0.084 ± 0.004,0.16 ± 0.02,91.3 ± 9.4,17.5 ± 1.6,< 1,"Residues in the reactive thiolate form ([4]; at pH 7): less than 1%; Thiol groups protonated (unreactive) ([4]; at pH 7, from lower thiol pKa […]): greater than 99%; Disulfide Reduction Potential (E°′) ([2]; listed as DTT (racemate)): −0.327 V^e"
